Converted amounts (≈) assume the structure as drawn.
Conditions: for aqueous solubility: pH 6.8

SMILES	MDR1-MDCK efflux ratio	intrinsic clearance, human liver microsomes [mL/min/kg]	intrinsic clearance, rat liver microsomes [mL/min/kg]	aqueous solubility [µg/mL]	fraction unbound, human plasma	fraction unbound, rat plasma
CNc1nc(-c2cc(OC)cc(OC)c2)ncc1F	0.408	37.1	118	25.6 (≈ 97.4 µM)	–	–
Cc1ccc2nc(-c3ccc(N(C)C)cc3)[nH]c2c1	0.316	120	2530	11.4 (≈ 45.5 µM)	–	–
CCC(C)(C)NC(=O)C1(Cc2ccc(-c3cc(F)ccc3OC)cc2)CCOCC1	1.62	700	1020	12 (≈ 28.9 µM)	–	–
Cc1cc(F)ccc1C(=O)NCc1ccc(O)c(O)c1	–	≤ 4.74	83.9	40.5 (≈ 147 µM)	–	–
Cc1ncccc1CNc1nnc(C(C)(C)C)s1	1.28	≤ 4.74	19.3	40.9 (≈ 156 µM)	–	–
CCC(C)(C)N1CCN(C(=O)NCCc2cc(C)no2)CC1	7.18	≤ 4.74	274	–	–	–
COc1ccccc1-n1ncc2c(=O)[nH]c(SC(C)c3ccccc3)nc21 (centres undefined)	–	224	1180	–	–	–
CCOC(=O)c1cccnc1-c1ccc2[nH]ccc2c1	0.599	86.4	695	36.8 (≈ 138 µM)	–	–
Cc1ncsc1CN1CCCN(c2nc3ccccc3[nH]2)CC1	50.4	36.5	518	51.9 (≈ 158 µM)	–	–
CN(Cc1ccc(OC(F)(F)F)cc1)Cc1cn(C)nn1	0.666	15	290	–	–	–
O=C(c1nccc2ccccc12)N1CCC(COc2ccccn2)CC1	–	42.1	5410	–	–	–
COc1nc(C#N)c(N2CCOCC2)o1	–	–	–	44.4 (≈ 212 µM)	–	–
COc1ccc(-c2nn3c(-c4ccco4)nnc3c3ccccc23)cc1	0.526	–	–	0.18 (≈ 0.526 µM)	–	–
Cc1ncc(C(=O)Nc2ncnc3oc(C)c(C)c23)s1	0.422	26.3	160	53.2 (≈ 185 µM)	–	–
CC(C)N1CCN(CCCSc2ncc[nH]2)CC1	–	≤ 4.74	87.1	–	–	–
CC(=O)N1CCN(Cc2nc(O)cc(C(F)(F)F)n2)C(C)(C)C1	26.6	≤ 4.74	≤ 10.7	–	–	–
COCCN1CCOc2nc3c(C)cccc3cc2C1	0.564	14.7	882	–	–	–
Nc1ccc2c(c1)ncn2-c1ccccc1	–	7.59	25.3	–	–	–
O=C(COCc1nc2ccccc2s1)N1CCC(n2c(=O)[nH]c3ccccc32)CC1	–	68.6	1020	–	–	–
COc1cc(Nc2ncc3c(n2)-c2ccc(Cl)cc2C(c2c(F)cccc2OC)=NC3)ccc1C(=O)O	13.5	≤ 4.74	20.5	73.1 (≈ 141 µM)	–	–
COCCNc1cc(NC(=O)N2CCCc3cc(CN4CCN(C)CC4=O)c(C=O)nc32)ncc1C#N	46	14.4	24	20 (≈ 39.5 µM)	–	–
O=C(Nc1ccccc1)c1sc(N2CCOCC2)nc1-c1ccccc1	0.494	–	–	0.26 (≈ 0.711 µM)	–	–

SMILES	MDR1-MDCK efflux ratio	intrinsic clearance, human liver microsomes [mL/min/kg]	intrinsic clearance, rat liver microsomes [mL/min/kg]	aqueous solubility [µg/mL]	fraction unbound, human plasma	fraction unbound, rat plasma
CN(CCN(C)C1CCCC1)C(=O)c1ccc(-c2nc[nH]n2)cc1	–	≤ 4.74	19.6	36.8 (≈ 112 µM)	–	–
Cc1ccc(Cn2ccn(-c3ccc(F)c(F)c3)c(=O)c2=O)cc1	0.671	–	–	0.35 (≈ 1.07 µM)	–	–
CCc1cc2c(=O)[nH]c(-c3ccccn3)nc2s1	–	–	–	49 (≈ 190 µM)	–	–
CC(C)(O)CCn1cc2cc(NC(=O)c3cccc(C(F)(F)F)n3)c(C(C)(C)O)cc2n1	10.2	9.92	42.6	–	0.104	0.124
COCCOc1ccc(N2CCN(CCn3ncc4c3nc(N)n3nc(-c5ccco5)nc43)CC2)cc1	–	–	–	0.9 (≈ 1.79 µM)	–	–
O=C(CCCOc1ccccc1)N1CCCC1	0.631	10.4	295	30.5 (≈ 131 µM)	–	–
CSC1(CNc2cc(C)nc(C)n2)CCOCC1	1.42	≤ 4.74	76.1	–	–	–
Cc1nc2ccccc2c(C(=O)O)c1C	–	≤ 4.74	≤ 10.7	–	–	–
CN(C)C1(CNC(=O)Cn2ccc(=O)cc2)CCCCC1	0.273	5.3	16.1	–	–	–
COc1cc2c(cc1OC)CC(=O)N(CCCN(C)C[C@H]1Cc3cc(OC)c(OC)cc31)CC2	73.8	36.7	163	65.8 (≈ 140 µM)	0.538	0.412
CC(C)(C)c1noc(COc2ccccc2C#N)n1	–	–	–	40.8 (≈ 159 µM)	–	–
Cc1ccccc1N(CC(=O)O)S(C)(=O)=O	–	–	–	44.7 (≈ 184 µM)	–	–
CN(Cc1cccc(C#N)c1)Cc1ccccc1C#N	0.591	283	4220	29.4 (≈ 112 µM)	–	–
Cc1ccc(S(=O)(=O)N2CCOc3ccncc32)cc1	0.71	107	2090	–	–	–
Cn1cc(CNc2ncccn2)c(C(C)(C)C)n1	0.905	≤ 4.74	363	–	–	–
O=C1CCCN1C(=O)COc1cccc(-c2nnco2)c1	0.91	≤ 4.74	27.5	54.9 (≈ 191 µM)	–	–
Nc1nccc2ccc(-c3cccc(F)c3)cc12	–	209	790	3 (≈ 12.6 µM)	–	–
N#CCCN(c1ncnc2sccc12)C1CC1	0.714	11	231	39.8 (≈ 163 µM)	–	–
Fc1ccc2oc(Cn3nnc(-c4ccsc4)n3)nc2c1	–	–	–	30.2 (≈ 100 µM)	–	–
N#Cc1ccnc(Nc2ccc(F)cc2)c1	0.609	164	185	–	–	–
Cc1cnc(-c2nc(NCc3cccnc3)ncc2-c2cc(C)no2)cn1	–	17.1	261	–	–	–
O=C(Nc1cc(C2CC2)n[nH]1)C1CCN(C(=O)COc2ccccc2)CC1	–	–	–	42.5 (≈ 115 µM)	–	–

SMILES	MDR1-MDCK efflux ratio	intrinsic clearance, human liver microsomes [mL/min/kg]	intrinsic clearance, rat liver microsomes [mL/min/kg]	aqueous solubility [µg/mL]	fraction unbound, human plasma	fraction unbound, rat plasma
N#Cc1ccsc1NC(=O)c1ccccn1	–	–	–	5.91 (≈ 25.8 µM)	–	–
C[C@@H](c1ccc2ccc(O[C@H]3CC[C@@H](C(F)(F)F)CC3)c(C(F)(F)F)c2c1)N1C2CCC1CC(C(=O)O)C2 (some centres undefined)	51.8	7.58	35.6	73.2 (≈ 135 µM)	–	–
O=C(NCCc1ccc(F)cc1)n1ccnc1	–	39.7	95.6	–	–	–
NCCC(=O)Nc1ccc2[nH]c(=O)[nH]c2c1	–	–	–	143 (≈ 648 µM)	–	–
Cc1nnc(CN(C)CC(C)Oc2ccc(Cl)c(Cl)c2)n1C (centres undefined)	7.09	132	1440	33 (≈ 96.1 µM)	0.0844	0.13
Cn1ccc2c(C(=O)Nc3ncn(Cc4cccnc4)n3)cccc21	54.9	≤ 4.74	30.9	42.5 (≈ 128 µM)	–	–
O=C(Cn1cccc(C(=O)Nc2cccc(-n3cccn3)c2)c1=O)NC1CCCCC1	18.7	–	–	0.8 (≈ 1.91 µM)	–	–
N=c1ccn2c(n1)O[C@@H]1[C@@H](O)[C@@H](CO)O[C@H]12	–	≤ 4.74	≤ 10.7	–	–	–
Cc1nnc(N2CCCSCC2)c(C#N)c1C	0.646	35.7	1530	23.6 (≈ 95.1 µM)	–	–
Cc1nn(C)c2ncnc(N(C)Cc3cccc(Cl)c3)c12	0.569	28.3	652	22.5 (≈ 74.5 µM)	–	–
Fc1ccc2[nH]c(CO[C@H]3CN(Cc4ccccc4)C[C@H]3F)nc2c1	0.885	88.9	971	35.4 (≈ 103 µM)	–	–
CCOc1ccc(Oc2ccc(OCc3cc(F)ccc3F)cc2)c(N)c1	–	8.79	104	–	–	–
Cc1ccc(Cn2nccc2NC(=O)c2ccncc2)o1	2.28	7.52	214	33.6 (≈ 119 µM)	–	–
Fc1cccc(N2CCCC2)c1CN1CCN(Cc2ccon2)CC1	0.64	60.6	3460	–	–	–
CN(C)c1ccc2c(c1)Sc1cc(N(C)C)ccc1N2	6.59	31.8	153	–	–	–
COC(=O)N1CC(NCc2c(C)nn(C(C)(C)C)c2C)C1	1.79	≤ 4.74	61.2	–	–	–
CCn1c(COC(=O)c2ccc(C)s2)nc2cc(S(=O)(=O)N3CCCCC3)ccc21	–	353	770	1.04 (≈ 2.32 µM)	–	–
O=c1c2oc3ccccc3c2ncn1Cc1ccc(Cl)cc1	0.573	103	906	–	–	–
O=C(Nc1nncs1)c1ccc(N2CCC3(CCCCC3)C2)nc1	0.729	–	–	0.66 (≈ 1.92 µM)	–	–
N#Cc1cccc(NC(=O)C2CCC2)c1	–	–	–	33.8 (≈ 169 µM)	–	–
